Measurements: patent US7939509B2, “Partial and full agonists of A1 adenosine receptors” (Gilead Sciences, Inc., priority 2002, dated 2011)

Assays:
Assay type in all cases: in vivo, rat
awake rats = test: Anti-lipolytic effect: serum free fatty acids (FFA) in overnight-fasted awake rats
Procedure: All experimental procedures were performed under a protocol approved by the Institutional Animal Care and Use Committee of CV Therapeutics, Inc., and in accordance with the recommendations set forth in the Guide for the Care and Use of Laboratory Animals published by the National Research Council. Male Sprague-Dawley rats (225-250 gm) with either one or two indwelling catheters (carotid and jugular) were purchased from Charles River Laboratories (Wilmington, Mass.). Animals were housed 1 per cage in a room maintained on a 12 h light/dark cycle (light on 06.00-18.00 h) under constant temperature (22-25° C.) and with ad libitum access to food and water. The anti-lipolytic effects of Compound A were studied in awake rats. Animals were fasted overnight before experimental use. On the day of the experiment, animals were put in metabolic cages and left undisturbed to acclimate to the environment for 1-2 hrs. An infusion set (21 G×¾″, 0.8×19 mm U.T.W., 3½″, 9 cm tubing, volume 0.15 ml) was connected to the arterial catheter for blood sampling. A 1% sodium citrate saline solution was used to flush the lines. A pre-treatment blood sample was obtained from each animal to determine baseline values for FFA and TG. Compound A was given via oral gavage, sc injection, iv injection, or iv infusion, as described, for each different series of experiments. Blood samples were collected into serum separator tubes (Becton Dickinson, Franklin Lakes, N.J.) at pre-determined times, Blood was allowed to clot, and then centrifuged at 8000 rpm for 4 min at 4° C. The serum was stored at −80° C. and was thawed at 4° C. for determinations of FFA and TG contents. […] Sodium citrate and Triton WR1339 were purchased from Sigma (St. Louis, Mo.). Nicotinic acid and PEG 400 were purchased from VWR (by EMD Chemicals). Triton WR 1339 was diluted in warm saline (˜37° C.) with frequent vortexing. […] Compound A was dissolved in PEG 400, and then diluted with distilled water to make a 20% PEG drug solution. Serum FFA and TGs were measured using commercial kits from Wako Chemicals, Richmond, Va. Glucose and Insulin were measured using commercial kits from Wako Chemicals USA (Richmond, Va.). All data are reported as mean±SEM. Statistical analysis of data from experiments with 2 treatment groups was performed using the unpaired Student's t-test. Two way analysis of variance followed by Bonferroni's test was used for multiple comparisons.

Sprague-Dawley rats = test: Acute effect on insulin, FFA and TG in rats fed chow or high fat diet for 2 weeks; conditions: 1 mg/kg oral gavage, 4 hr fast
Procedure: FIG. 8 graphically illustrates the time-course of the effect of Compound A on serum (A) insulin, (B) free fatty acids (FFA), and (C) triglycerides (TG) in rats fed normal diet (ND) and high fat diet (HFD) for 2 weeks as discussed in Example 32. Animals were fasted for four hours before the experiment. Compound A was administered via oral gavage at a dose of 1 mg/kg. Values represent mean±SEM from number of animals indicated in the parenthesis for each group.
All experimental procedures were performed under a protocol approved by the IACUC (CV Therapeutics, Inc.) and in accordance with the recommendations set forth in the Guide for the Care and Use of Laboratory Animals published by the National Research Council. Male Sprague-Dawley rats (225-250 gm) with either one or two indwelling catheters (carotid and jugular) were obtained from Charles River Laboratories (Wilmington, Mass.). Animals were housed 1 per cage in a room maintained on a 12 h light/dark cycle (light on 06.00-18.00 h) under constant temperature (22-25° C.) and with ad libitum access to food and water. Rats on normal diet (Chow) were fed standard laboratory chow (12% fat, 60% carbohydrate, and 28% protein) throughout the study, while animals in the high fat (HF) diet group were given a diet (TD88137 from Harlan Teklad, Madison, Wis.) containing 42% fat, 43% carbohydrate, and 15% protein.
The anti-lipolytic effects of Compound A (see chemical name below) were studied in awake rats. On the day of the experiment, animals were put in metabolic cages and left undisturbed to acclimate to the environment for 1-2 hrs. An infusion set (21 G×¾″, 0.8×19 mm U.T.W., 3½″, 9 cm tubing, volume 0.15 ml) was connected to the arterial catheter for blood sampling. A 1% sodium citrate saline solution was used to flush the lines. A pre-treatment blood sample was obtained from each animal to determine baseline values for glucose, insulin, FFA and TG. Blood samples were collected into plasma and serum separator tubes (Becton Dickinson, Franklin Lakes, N.J.) at pre-determined time points. Oral glucose tolerance test (OGTT) was performed by giving 2 gm/kg of glucose load. Compound A was given via an oral gavage 15 minutes prior to the glucose load. For chronic experiments Compound A was administered twice a day via subcutaneous injection at a dose of 5 mg/kg for 2 weeks. An OGTT was performed at the end of two weeks at ˜2 hrs after the last dose of Compound A.
Compound A (2-{6-[((1R,2R)-2-hydroxycyclopentyl)amino]purin-9-yl}(4S,5S,2R,3R)-5-[(2-fluorophenylthio)methyl]oxolane-3,4-diol) was synthesized by the Department of Medicinal and Bio-Organic chemistry of CV Therapeutics, Inc. Sodium citrate was purchased from Sigma (St. Louis, Mo.). PEG 400 was purchased from VWR (by EMD Chemicals). Triton WR1339 was diluted in warm saline (˜37° C.) with frequent vortexing. Compound A was dissolved in. PEG 400, and then diluted with distilled water to make a 20% PEG drug solution. FFA and TGs were measured using commercial kits from Wako Chemicals, (Richmond, Va.). Glucose and Insulin were measured using commercial kits from Thermo Electron Corporation (Waltham, Mass.) and Crystal Chem (Downers Grove, Ill.), respectively.
All data are reported as mean±SEM. Statistical analysis of data from experiments with 2 treatment groups was performed using the unpaired Student's t-test. One way analysis of variance (ANOVA) followed by Newman-Keuls posthoc analysis was used for multiple comparisons. Data form OGTT was analyzed by calculating area under the curve (AUC) using prism graphpad software. Differences between/among treatment groups were considered to be significant when the probability of their occurrence by chance alone was <0.05.

rats fed high fat diet = test: Chronic 2 week treatment: fasting glucose, insulin, FFA, TG in high fat diet rats; conditions: 5 mg/kg SC for 2 weeks, HF rats
Procedure: Animals were fasted overnight before taking samples. Compound A was given via SC injection for 2 weeks at a dose of 5 mg/kg. Data is presented as mean±SEM from number of animals indicated below each bar. […] Male Sprague-Dawley rats (225-250 gm) with either one or two indwelling catheters (carotid and jugular) were obtained from Charles River Laboratories (Wilmington, Mass.). Animals were housed 1 per cage in a room maintained on a 12 h light/dark cycle (light on 06.00-18.00 h) under constant temperature (22-25° C.) and with ad libitum access to food and water. Rats on normal diet (Chow) were fed standard laboratory chow (12% fat, 60% carbohydrate, and 28% protein) throughout the study, while animals in the high fat (HF) diet group were given a diet (TD88137 from Harlan Teklad, Madison, Wis.) containing 42% fat, 43% carbohydrate, and 15% protein. The anti-lipolytic effects of Compound A (see chemical name below) were studied in awake rats. On the day of the experiment, animals were put in metabolic cages and left undisturbed to acclimate to the environment for 1-2 hrs. An infusion set (21 G×¾″, 0.8×19 mm U.T.W., 3½″, 9 cm tubing, volume 0.15 ml) was connected to the arterial catheter for blood sampling. A 1% sodium citrate saline solution was used to flush the lines. A pre-treatment blood sample was obtained from each animal to determine baseline values for glucose, insulin, FFA and TG. Blood samples were collected into plasma and serum separator tubes (Becton Dickinson, Franklin Lakes, N.J.) at pre-determined time points. […] For chronic experiments Compound A was administered twice a day via subcutaneous injection at a dose of 5 mg/kg for 2 weeks. […] Statistical analysis of data from experiments with 2 treatment groups was performed using the unpaired Student's t-test. One way analysis of variance (ANOVA) followed by Newman-Keuls posthoc analysis was used for multiple comparisons. […] Differences between/among treatment groups were considered to be significant when the probability of their occurrence by chance alone was <0.05.

O[C@@H]1[C@H](O)[C@@H](CSc2ccccc2F)O[C@H]1n1cnc2c(N[C@@H]3CCC[C@H]3O)ncnc21 [Compound A, 2-{6-[((1R,2R)-2-hydroxycyclopentyl)amino]purin-9-yl}(4S,5S,2R,3R)-5-[(2-fluorophenylthio)methyl]oxolane-3,4-diol]
maximal decrease in FFA levels (awake rats; 1 mg/kg iv bolus): 54±5%
FFA level after treatment (awake rats; 1 mg/kg iv bolus, from 0.79±0.04 mM, p<0.001): 0.36 ± 0.05 mM
FFA level after first iv injection (awake rats; 1 mg/kg iv, first of three repeated injections, baseline 0.88±0.02 mM): 0.35 ± 0.04 mM
FFA level after second iv injection (awake rats; 1 mg/kg iv, second of three repeated injections, baseline 0.88±0.02 mM): 0.35 ± 0.03 mM
FFA level after third iv injection (awake rats; 1 mg/kg iv, third of three repeated injections, baseline 0.88±0.02 mM): 0.38 ± 0.03 mM
decrease in FFA below baseline (awake rats; 2.5 mg/kg oral gavage): 31%
FFA level after treatment (awake rats; 2.5 mg/kg oral gavage, from baseline 0.7±0.05 mM, p<0.05): 0.5 ± 0.03 mM
decrease in FFA levels (awake rats; 5 mg/kg oral gavage): 47%
FFA level after treatment (awake rats; 5 mg/kg oral gavage, from 0.8±0.04 mM, p<0.01): 0.4 ± 0.03 mM
decrease in FFA levels (awake rats; 10 mg/kg oral gavage): 57%
FFA level after treatment (awake rats; 10 mg/kg oral gavage, from 0.68±0.04 mM, p<0.001): 0.29 ± 0.02 mM
duration of the effect to suppress lipolysis (awake rats; 2.5, 5, 10 mg/kg oral gavage): dose-dependent
lowering of FFA levels, dose dependence (awake rats; 2.5, 5, 10 mg/kg oral gavage): dose-dependent manner
rebound increase of FFA levels (awake rats; after iv bolus): not observed
acute tachyphylaxis of the FFA lowering effect (awake rats; three repeated iv injections, 1 mg/kg): did not undergo acute tachyphylaxis
decrease in FFA concentration from 0 to 30 min (Sprague-Dawley rats; Chow rats): 0.24 ± 0.07 mM
decrease in TG concentration from 0 to 30 min (Sprague-Dawley rats; Chow rats): 17 ± 3 mg/dL
decrease in insulin concentration from 0 to 30 min (Sprague-Dawley rats; Chow rats): 0.8 ± 0.32 ng/mL
decrease in FFA concentration from 0 to 30 min (Sprague-Dawley rats; HF rats): 0.65 ± 0.1 mM
decrease in TG concentration from 0 to 30 min (Sprague-Dawley rats; HF rats): 46 ± 15 mg/dL
decrease in insulin concentration from 0 to 30 min (Sprague-Dawley rats; HF rats): 2.37 ± 0.85 ng/mL
fasting FFA concentration vs placebo (rats fed high fat diet): significantly lower
fasting TG concentration vs placebo (rats fed high fat diet): significantly lower
fasting glucose concentration vs placebo (rats fed high fat diet): no significant differences
fasting insulin concentration vs placebo (rats fed high fat diet): significantly lower
